Patent US7300946B2, “N-(substituted arylmethyl)-4-(disubstituted methyl) piperidines and pyridines” (Bayer CropScience AG, priority 2002, dated 2007)

System: tobacco budworm (Heliothis virescens [Fabricius])
Assay: surface-treated diet test against the tobacco budworm
Format: in vivo
Conditions: tobacco budworm second instar larvae, surface-treated diet, 0.25 millimoles of candidate insecticide on the surface of the diet, five-day exposure; for Percent Mortality: compared to total number of insects infested; for Percent Growth Inhibition: inhibition of insect weight relative to untreated controls
Summary of the method: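 Wheat germ artificial diet surface-treated with 40 µL of 50 mM DMSO stock diluted 1:7 in 1:1 water/acetone (0.25 millimolar on diet), or sub-multiples for rate tests. One second-instar larva per well, 25° C, 60% RH, 5 days; percent weight inhibition vs DMSO controls and percent mortality.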

| Compound | Percent Mortality | Percent Growth Inhibition |
| --- | --- | --- |
| Cn1nnc(-c2ccc(CN3CCC(C(NC(=O)Oc4ccc(F)cc4)c4ccc(OC(F)(F)F)cc4)CC3)cc2)n1 (centres unmarked) [Compound 353] | 17% | 87% |
| Cn1nnc(-c2ccc(CN3CCC(C(NC(=O)Oc4ccc(I)cc4)c4ccc(OC(F)(F)F)cc4)CC3)cc2)n1 (centres unmarked) [Compound 354] | 100% | 100% |
| Cc1ccc(OC(=O)NC(c2ccc(OC(F)(F)F)cc2)C2CCN(Cc3ccc(-c4nnn(C)n4)cc3)CC2)cc1 (centres unmarked) [Compound 355] | 100% | 100% |
| COc1ccc(OC(=O)NC(c2ccc(OC(F)(F)F)cc2)C2CCN(Cc3ccc(-c4nnn(C)n4)cc3)CC2)cc1 (centres unmarked) [Compound 356] | 100% | 100% |
| Cn1nnc(-c2ccc(CN3CCC(C(NC(=O)Oc4ccc(OC(F)(F)F)cc4)c4ccc(OC(F)(F)F)cc4)CC3)cc2)n1 (centres unmarked) [Compound 357] | 100% | 100% |
| Cn1nnc(-c2ccc(CN3CCC(C(NC(=O)Oc4ccc([N+](=O)[O-])cc4)c4ccc(OC(F)(F)F)cc4)CC3)cc2)n1 (centres unmarked) [Compound 358] | 83% | 99% |
| O=C(Nc1ccc(Cl)cc1)OC(c1ccc(C(F)(F)F)cc1)C1CC[N+]([O-])(Cc2ccc(Oc3ccccn3)cc2)CC1 (centres unmarked) [Compound 395, N-(4-chlorophenyl)({1-[(4-(2-pyridyloxy)phenyl)methyl](4-(1-oxypiperidyl))}[4-(trifluoromethyl)phenyl]methoxy)carboxamide] | 100% | 100% |
| O=C(Nc1ccc(Cl)c(Cl)c1)OC(c1ccc(C(F)(F)F)cc1)C1CC[N+]([O-])(Cc2ccc(Oc3ccccn3)cc2)CC1 (centres unmarked) [Compound 396] | 100% | 100% |
| O=C(Nc1cc(F)cc(F)c1)OC(c1ccc(C(F)(F)F)cc1)C1CC[N+]([O-])(Cc2ccc(Oc3ccccn3)cc2)CC1 (centres unmarked) [Compound 397] | 100% | 100% |
| O=C(Nc1ccc(C(F)(F)F)cc1)OC(c1ccc(C(F)(F)F)cc1)C1CC[N+]([O-])(Cc2ccc(Oc3ccccn3)cc2)CC1 (centres unmarked) [Compound 398] | 100% | 100% |
| Cn1nnc(-c2ccc(C[N+]3([O-])CCC(C(OC(=O)Nc4ccc(Cl)cc4)c4ccc(OC(F)(F)F)cc4)CC3)cc2)n1 (centres unmarked) [Compound 399] | 100% | 100% |
| Cn1nnc(-c2ccc(C[N+]3([O-])CCC(C(OC(=O)Nc4ccc(F)cc4)c4ccc(OC(F)(F)F)cc4)CC3)cc2)n1 (centres unmarked) [Compound 400] | 100% | 100% |
| CCn1nnc(-c2ccc(C[N+]3([O-])CCC(C(OC(=O)Nc4ccc(F)cc4)c4ccc(OC(F)(F)F)cc4)CC3)cc2)n1 (centres unmarked) [Compound 401] | 100% | 100% |
| Cn1nnc(-c2ccc(C[N+]3([O-])CCC(C(OC(=O)Nc4ccc(C(F)(F)F)cc4)c4ccc(OC(F)(F)F)cc4)CC3)cc2)n1 (centres unmarked) [Compound 402] | 100% | 100% |
| Cn1nnc(-c2ccc(C[N+]3([O-])CCC(C(OC(=O)Nc4ccc(OC(F)(F)F)cc4)c4ccc(OC(F)(F)F)cc4)CC3)cc2)n1 (centres unmarked) [Compound 404] | 100% | 100% |
| CCn1nnc(-c2ccc(C[N+]3([O-])CCC(C(OC(=O)Nc4ccc(OC(F)(F)F)cc4)c4ccc(OC(F)(F)F)cc4)CC3)cc2)n1 (centres unmarked) [Compound 405] | 100% | 100% |
| CCCNC(=O)OC(c1ccc(C(F)(F)F)cc1)C1CCN(Cc2ccc(Oc3ccccn3)cc2)CC1 (centres unmarked) [Compound 427] | 33% | 100% |
| CC(C)NC(=O)OC(c1ccc(C(F)(F)F)cc1)C1CCN(Cc2ccc(Oc3ccccn3)cc2)CC1 (centres unmarked) [Compound 429] | 100% | 100% |
| O=C(NC1CCCCC1)OC(c1ccc(C(F)(F)F)cc1)C1CCN(Cc2ccc(Oc3ccccn3)cc2)CC1 (centres unmarked) [Compound 432] | 100% | 100% |
| CCCS(=O)(=O)NC(c1ccc(OC(F)(F)F)cc1)C1CCN(Cc2ccc(-c3nnn(C)n3)cc2)CC1 (centres unmarked) [Compound 433, [(1-{[4-(2-methyl(1,2,3,4-tetraazol-5-yl))phenyl]methyl}(4-piperidyl))[4-(trifluoromethoxy)phenyl]methyl]propylsulfonylamide] | 100% | 100% |

| Compound | Percent Mortality | Percent Growth Inhibition |
| --- | --- | --- |
| Cn1nnc(-c2ccc(CN3CCC(C(Oc4ccc(C(F)(F)F)cn4)c4ccc(OC(F)(F)F)cc4)CC3)cc2)n1 (centres unmarked) [Compound 434, 2-[(1-{[4-(2-methyl(1,2,3,4-tetraazol-5-yl))phenyl]methyl}(4-piperidyl))[4-(trifluoromethoxy)phenyl]methoxy]-5-(trifluoromethyl)pyridine] | 100% | 100% |
| Cn1nnc(-c2ccc(CN3CCC(C(Oc4ccc(Cl)cn4)c4ccc(C(F)(F)F)cc4)CC3)cc2)n1 (centres unmarked) [Compound 435] | 100% | 100% |
| O=C(Nc1ccccn1)OC(c1ccc(C(F)(F)F)cc1)C1CCN(Cc2ccc(Oc3ccccn3)cc2)CC1 (centres unmarked) [Compound 436] | 50% | 100% |
| FC(F)(F)c1ccc(C(Oc2ccc(C(F)(F)F)cn2)C2CCN(Cc3ccc(Oc4ccccn4)cc3)CC2)cc1 (centres unmarked) [Compound 437] | 100% | 100% |
| FC(F)(F)c1ccc(C(Oc2cc(C(F)(F)F)ccn2)C2CCN(Cc3ccc(Oc4ccccn4)cc3)CC2)cc1 (centres unmarked) [Compound 438] | 100% | 100% |
| O=C(Nc1ccc(Cl)cn1)OC(c1ccc(C(F)(F)F)cc1)C1CCN(Cc2ccc(Oc3ccccn3)cc2)CC1 (centres unmarked) [Compound 439] | 100% | 100% |
| FC(F)(F)c1ccc(C(Oc2ccc(C(F)(F)F)cn2)C2CCN(Cc3ccc(Oc4ccc(Cl)nn4)cc3)CC2)cc1 (centres unmarked) [Compound 440] | 100% | 100% |
| FC(F)(F)c1ccc(C(Oc2cc(C(F)(F)F)ccn2)C2CCN(Cc3ccc(Oc4ccc(Cl)nn4)cc3)CC2)cc1 (centres unmarked) [Compound 441] | 100% | 100% |
| [O-][N+]1(Cc2ccc(Oc3ccccn3)cc2)CCC(C(Oc2ccc(C(F)(F)F)cn2)c2ccc(C(F)(F)F)cc2)CC1 (centres unmarked) [Compound 442] | 100% | 100% |
| FC(F)(F)c1ccc(C(Oc2cncc(Cl)c2)C2CCN(Cc3ccc(Oc4ccccn4)cc3)CC2)cc1 (centres unmarked) [Compound 443] | 33% | 100% |
| O=C(Nc1cccnc1)OC(c1ccc(C(F)(F)F)cc1)C1CCN(Cc2ccc(Oc3ccccn3)cc2)CC1 (centres unmarked) [Compound 444] | 0% | 96% |
| O=C(Nc1ccc(Cl)nc1)OC(c1ccc(C(F)(F)F)cc1)C1CCN(Cc2ccc(Oc3ccccn3)cc2)CC1 (centres unmarked) [Compound 445] | 100% | 100% |
| N#Cc1ccc(NC(=O)OC(c2ccc(C(F)(F)F)cc2)C2CCN(Cc3ccc(Oc4ccccn4)cc3)CC2)cn1 (centres unmarked) [Compound 446] | 17% | 100% |
| O=C(Nc1cccnc1Cl)OC(c1ccc(C(F)(F)F)cc1)C1CCN(Cc2ccc(Oc3ccccn3)cc2)CC1 (centres unmarked) [Compound 447] | 100% | 100% |
| O=C(Nc1ccc(C(F)(F)F)nc1)OC(c1ccc(C(F)(F)F)cc1)C1CCN(Cc2ccc(Oc3ccccn3)cc2)CC1 (centres unmarked) [Compound 448] | 100% | 100% |
| O=C(Nc1ccncc1)OC(c1ccc(C(F)(F)F)cc1)C1CCN(Cc2ccc(Oc3ccccn3)cc2)CC1 (centres unmarked) [Compound 450] | 0% | 62% |
| O=C(Nc1cc(Cl)nc(Cl)c1)OC(c1ccc(C(F)(F)F)cc1)C1CCN(Cc2ccc(Oc3ccccn3)cc2)CC1 (centres unmarked) [Compound 451] | 100% | 100% |
| FC(F)(F)c1ccc(C(Oc2ccc(Cl)nn2)C2CCN(Cc3ccc(Oc4ccccn4)cc3)CC2)cc1 (centres unmarked) [Compound 452] | 67% | 100% |
| Cn1nnc(-c2ccc(CN3CCC(C(Oc4ccc(Cl)nn4)c4ccc(OC(F)(F)F)cc4)CC3)cc2)n1 (centres unmarked) [Compound 453] | 83% | 100% |
| CCON=Cc1ccc(CN2CCC(C(Oc3ccc(C(F)(F)F)cc3)c3ccc(C(F)(F)F)cc3)CC2)cc1 (centres unmarked) [Compound 454] | 100% | 100% |
